Test results from PMC11215077, “Antiviral activity of temporin-1CEb analogues against gingival infection with herpes simplex virus type 1” (Frontiers in Oral Health, 2024).
In brackets after ≈: the same amount, converted by molar mass. Square brackets hold non-standard residues; d marks the D form. Peptide text beside a SMILES is read from it. AEEA = NCCOCCOCC(=O)O

Assays:
[1] = Analytical RP-HPLC retention time; conditions: Phenomenex Jupiter 4 μ Proteo 90 Å, 250 × 4.60 mm, listed as basic physicochemical characteristic
Description: The synthesized compounds were then purified by reverse-phase high-performance liquid chromatography (RP-HPLC) on a Waters system (Phenomenex Jupiter 4 μ Proteo 90 Å column, 250 × 10 mm). A linear gradient from 10% to 80% of solvent B over 60 min (Solvent A: 0.1% TFA in water; Solvent B: 80% acetonitrile in Solvent A) was employed with a flow rate 5 ml/min. The homogeneity of the final peptide fractions was analyzed using a Shimadzu HPLC System (Shimadzu Europe GmbH, Duisburg, Germany) equipped with a Phenomenex Jupiter 4 μ Proteo 90 Å column, 250 × 4.60 mm. The mass spectra of the synthesized peptides were recorded using a Biflex III MALDI-TOF mass spectrometry (Bruker, Mannheim, Germany) with α-cyano-4-hydroxy-cinnamic acid (CCA) or 2,5-dihydroxybenzoic acid (DHB) used as the matrix.

HSV-1 [2] = test: Antiviral activity in 3D organotypic model of human gingiva (OTG); format: cell-based, herpes simplex virus type 1
Description: Protocol was described previously ([34]). Briefly, to prepare 3D cultures, 150,000 gingival fibroblasts suspended in 10% FBS in DMEM were mixed with 2.4 ml of ice-cold Matrigel® (Corning) (final concentration 7 mg/ml) and placed in the middle of 12-well cell culture inserts (Greiner). Three days later, 1 × 10^6 TIGK cells suspended in EPM1 were added to the top of the insert. On the ninth day after the start of the procedure, the old culture medium was removed and EPM2 was added to the bottom of the insert. The epithelial layer on the top was exposed to the air, which promotes epithelial differentiation and then stratification. About 8–10 days after air-liquid interphase, 3D cultures of gingiva were used for further experiments.
The apical surface of OTG model was washed three times with PBS and then inoculated with 100 μl of viral stock (TCID50 400 /ml) in the presence of DAL-PEG-LK6 or CPP1-PEG-LK6 (15 μg/ml) for 2 h at 4°C. Following incubation, the unbound HSV-1 was removed by washing with PBS for 10 min at 37°C, and the OTG cultures were maintained at an air-liquid interface for the rest of the experiment. To determine viral yield, 120 μl of PBS was applied to the apical surface of the OTG, and harvested for DNA isolation after 10 min of incubation at 37°C.
Briefly, cell inserts were fixed in 10% formaldehyde at 4°C for 1 h. After embedding in paraffin, 3D cultures were cut into 5 μm sections and stained with H&E solution. For immunohistochemical analysis, slides were incubated for 1 h at room temperature in blocking buffer (5% normal goat serum, 0.1% saponin in PBS) and stained with primary antibodies anti-HSV-1 (1:100, 1% normal goat serum, 0.1% saponin in PBS; Abcam) and secondary antibodies: goat anti-rabbit conjugated with Alexa Fluor 488 (1:2000; Cell Signaling). Finally, cell nuclei were stained with ProLong Antifade Mounting Medium with DAPI. Slides were visualized with EVOS FL Cell Imaging System (Thermo Fisher Scientific).
(§1) Viral DNA was isolated from the conditioned media or the apical washes of inserts (OTG model) using Viral DNA/RNA Isolation Kit (A&A Biotechnology). The virus yield assessed by quantitative real-time PCR (qPCR). The reaction was carried out in a CFX96 Touch Real-Time PCR Detection System (Bio-Rad), in a 10 μl reaction mixture consisting of TaqMan^TM Fast Advanced Master Mix, TaqMan^TM Microbe Detection assay against HSV-1 (Vi04230116_s1) and 1 μl of viral DNA. The temperature profile was 10 s at 95°C, followed by 40 cycles of 3 s at 95°C and 20 s at 60°C. DNA quantification standards were prepared. In summary, a fragment of viral DNA was amplified using the primers listed above and cloned into the pTZ57R/T plasmid using the InsTAclone PCR cloning kit. The plasmid was propagated in E. coli, purified with the GeneJet Plasmid Miniprep Kit, and digested with the EcoR1 restriction enzyme. The number of copies per mL was estimated after the concentration of linearized DNA was assessed spectrophotometrically.

HSV-1 [3] = test: Virus inhibition (replication) assay in Vero E6 and TIGKs cells, qPCR, titration, gB Western blot; format: cell-based, herpes simplex virus type 1; conditions: 48 h p.i.
Description: HSV-1 stocks were generated by infecting Vero E6 cells. Cells were lysed at 48 h p.i. by two freeze-thaw cycles. The virus containing fluid was aliquoted and stored at −80°C. A control Vero E6 cell lysate from mock-infected cells was prepared in the same manner as the virus stock. Virus yield was assessed by virus titration on fully confluent Vero E6 cells in 96-well plates, according to the method of Reed & Muench ([32]). Plates were incubated at 37°C for 48 h and the occurrence of a cytopathic effect was scored using an inverted microscope, and TCID50 (50% tissue culture infection dose) was calculated.
Vero E6 or TIGKs cells were seeded in 12-well plates and cultured for 48 h. […] After 30 min of incubation at 37°C, cells were infected with HSV-1 at TCID50 400 /ml or treated with mock. After 2 h of infection at 37°C, unbound viral particles were removed by washing with PBS, and culture media supplemented with peptide conjugates were applied. Following 48 h of incubation, media were collected, and the quantity of HSV-1 DNA copies was assessed using titration and qPCR.
as §1
Protein extracts were prepared using lysis buffer (0.25% Na-deoxycholate, 0.5% Nonidet P-40, 0.05% SDS, protease inhibitor mixture, 2.5 mM EDTA in PBS), and the protein concentration was assessed using Pierce BCA (Thermo Fisher) protein assay kit. Equal amounts of cell extracts were separated on 10% SDS-PAGE gel and electrotransferred onto polyvinylidene difluoride membranes for gB and β-actin in transfer buffer (25 mM Tris, 0.2 M glycine, and 20% ethanol) for 90 min at 100 V. Nonspecific binding sites were blocked for 90 min in 5% skimmed milk prepared in TBST buffer (20 mM Tris, pH 7.5, 0.5 M NaCl, 0.05% Tween 20). Membranes were further incubated overnight at 4°C with primary antibodies: mouse anti-HSV-1 + HSV-2 gB (1:5000; abcam) and mouse anti-β-actin (1:4,000; BD Biosciences). The following day, membranes were washed three times with TBST buffer and incubated with HRP-conjugated secondary antibodies for 60 min at 37°C: goat anti-mouse IgG (1:20,000; β-actin; BD Bioscience) or sheep anti-mouse IgG (1:50,000; gB; Sigma Aldrich). Next, blots were washed five times for 5 min in TBST buffer, developed using Luminata Cresecendo Substarte (Merck) and exposed to AGFA medical x-ray film. Densitometry analysis was performed using ImageJ 1.52q software.

HSV-1 [4] = conditions: concentration reducing viral replication by 50%; TIGKs cells pre-treated, infected and cultivated with compound; qPCR; mean of two independent experiments
Description: Data were expressed as means ± SD. Statistical significance was determined using unpaired t-test, one-way ANOVA, and/or two-way ANOVA for direct comparisons between single groups. A p-value <0.05 was considered statistically significant. We used GrapPad Prism 10 software for the analyses. […]

CC[C@H](C)[C@H](NC(=O)COCCOCCNC(=O)[C@@H](NC(=O)[C@H](CC(C)C)NC(=O)[C@H](Cc1ccc(O)cc1)NC(=O)[C@@H](NC(=O)[C@H](Cc1ccccc1)NC(=O)[C@@H]1CCCN1)C(C)C)[C@@H](C)CC)C(=O)N[C@@H](CCCCN)C(=O)N[C@@H](CCCCN)C(=O)N[C@H](C(=O)N[C@@H](CC(C)C)C(=O)N[C@@H](CO)C(=O)N[C@@H](CCCCN)C(=O)N[C@H](C(=O)N[C@@H](CCCCN)C(=O)N[C@@H](CCCCN)C(=O)N[C@@H](CC(C)C)C(=O)N[C@@H](CC(C)C)C(=O)N[C@@H](CCCCN)C(N)=O)[C@@H](C)CC)[C@@H](C)CC [CPP1-PEG-LK6] (H-PFVYLI[AEEA]IKKILSKIKKLLK-NH2)
Rt [1]: 25.247 | reduction of viral yield in OTG at 48 h (HSV-1 [2]; 15 μg/ml during inoculation 2 h at 4°C, apical washes, qPCR, 48 h post-viral inoculation): 3 logs | reduction of viral yield in OTG at 72 h (HSV-1 [2]; 15 μg/ml during inoculation 2 h at 4°C, apical washes, qPCR, 72 h post-viral inoculation): 2 logs | morphology of epithelial cells in OTG (H&E) (HSV-1 [2]; 15 μg/ml, H&E stained sections, Figure 5A): no changes in the morphology of epithelial cells | HSV-1-positive cells in OTG sections (immunohistology) (HSV-1 [2]; 15 μg/ml, anti-HSV-1 immunofluorescence, Figure 5B): absent | expression level of gB (Western blot) (HSV-1 [3]; 15 μg/ml before, during and after infection, normalized to β-actin, cell line not stated): significantly suppressed the expression level of gB | reduction in viral yield in the qPCR test (HSV-1 [3]; Figure 1C, Vero E6 (DAL-PEG-LK6 and CPP1-PEG-LK6 25 μg/ml; CPP2-PEG-LK6 10 μg/ml) and TIGKs cells (15 μg/ml)): 3 log | reduction of virus replication in titration assay (HSV-1 [3]; Figure 1D, both cell models (Vero E6, TIGKs), normalized to untreated control): over 99% | IC50 (HSV-1 [4]): 0.942 µg/mL (≈ 0.388 µM)
